Experimental data from publication PMC11671526, “β-caryophyllene sensitizes hepatocellular carcinoma cells to chemotherapeutics and inhibits cell malignancy through targeting MAPK signaling pathway” (Frontiers in Pharmacology, 2024).

System: HepG2 cells
Test: RNA-seq transcriptome analysis of differentially expressed genes
Assay type: cell-based, human
Conditions: BCP vs control HepG2, RNA-seq
Experimental: The quality and concentration of RNA were examined by MOPS RNA electrophoresis and Eppendorf BioSpectrometer. The transcriptome analysis was performed by BGI-Wuhan China. The RNA-seq dataset of this study is accessible in the Gene Expression Omnibus (GEO) with an access number of GSE276099. The sequence library for each sample was prepared using the BGISEQ-500 platform with a 50-bp single-end (SE50) format. […]2.2.1) was used to align the clean reads to the reference genome and alignment of the clean reads to the reference genes was carried out using Bowtie2 (v2.4.5) ([Langmead and Salzberg, 2012]; [Kim et al., 2015]). Gene expression levels were calculated by RSEM (v1.3.1) ([Li and Dewey, 2011]). Analysis of differential gene expression was performed using edgeR in the Bioconductor software package ([Robinson et al., 2010]). Using a standard protocol, the RNA samples were also examined by reverse transcription and quantitative polymerase chain reaction (RT-qPCR). In brief, for reverse transcription, total RNA (1 μg) and gDNA wiper Mix were incubated at 42°C for 2 min. The samples were immediately incubated with a master mix containing 10 pmol/μL of poly (dT) primers at 37°C for 15 min and 85°C for 5 s. To detect the expression of specific genes by qPCR analysis, gene-specific primers (shown in Supplementary Table S1) were mixed with the ChamQ Universal SYBER qPCR Master Mix and the reaction was conducted using the Roche Lightcycler 480. The GAPDH value was used to normalize the results of each gene. The RNA-seq data of BCP-treated HepG2 cells were screened for DEGs. Gene symbols were turned into Enterz ID using the org.Hs.eg.db Bio-conductor R package. The cluster profiler (v4.6.2) package was used to perform the Kyoto Encyclopedia of Genes and Genomes (KEGG) and Gene Ontology (GO) enrichment analyses ([Wu et al., 2021]). Following the Transcript per million (TPM) data of the dataset, the line chart, and heatmap were plotted using ggplot2 and pheatmap R packages, respectively.

In the case of `C=C1CC/C=C(\C)CC[C@@H]2[C@@H]1CC2(C)C` [BCP, β-caryophyllene], the ABCA4 change was “Up”, the “ABCA4 logFC” value was 1.08 and the ABHD16B change was “Down”. The “ABHD16B logFC” value was -0.7624, the ACCS change was “Up” and the “ACCS logFC” value was 0.7756. For the same compound, the ADAT3 change was “Down”, the “ADAT3 logFC” value was -0.6489 and the ADGRE1 change was “Down”. For the same compound, the “ADGRE1 logFC” value was -1.049, the ADORA1 change was “Down” and the “ADORA1 logFC” value was -0.951. For the same compound, the ADORA2A change was “Down”, the “ADORA2A logFC” value was -0.7747 and the ADRA2C change was “Down”. For the same compound, the “ADRA2C logFC” value was -0.8257, the AGT change was “Up” and the “AGT logFC” value was 0.6624. For the same compound, the AKR1C1 change was “Down”, the “AKR1C1 logFC” value was -0.9841 and the ALOX12B change was “Down”. For the same compound, the “ALOX12B logFC” value was -0.7891, the ALOXE3 change was “Down” and the “ALOXE3 logFC” value was -1.101. The ANK1 change was “Down”, the “ANK1 logFC” value was -0.6258 and the ANK2 change was “Up”. For the same compound, the “ANK2 logFC” value was 0.6135, the ANKRD63 change was “Down” and the “ANKRD63 logFC” value was -1.109. The ANO9 change was “Up”, the “ANO9 logFC” value was 0.6598 and the AOX1 change was “Down”. For the same compound, the “AOX1 logFC” value was -0.7887, the ARHGAP25 change was “Down” and the “ARHGAP25 logFC” value was -0.9496. The ARTN change was “Down”, the “ARTN logFC” value was -0.6893 and the B3GNT4 change was “Down”. For the same compound, the “B3GNT4 logFC” value was -0.8549, the BEST1 change was “Up” and the “BEST1 logFC” value was 0.7297. The BOC change was “Down”, the “BOC logFC” value was -1.001 and the BOLA2B change was “Down”. For the same compound, the “BOLA2B logFC” value was -1.579, the BORCS8-MEF2B change was “Up” and the “BORCS8-MEF2B logFC” value was 0.7383. For the same compound, the C4orf50 change was “Down”, the “C4orf50 logFC” value was -0.84 and the C7orf31 change was “Up”. The “C7orf31 logFC” value was 0.8499, the C14orf132 change was “Down” and the “C14orf132 logFC” value was -0.9885. For the same compound, the C15orf62 change was “Down”, the “C15orf62 logFC” value was -0.8151 and the CACNA1D change was “Up”. The “CACNA1D logFC” value was 0.899, the CACNA1E change was “Down” and the “CACNA1E logFC” value was -0.8241. For the same compound, the CAMK2N2 change was “Down”, the “CAMK2N2 logFC” value was -0.8129 and the CARMIL2 change was “Down”. The “CARMIL2 logFC” value was -0.818, the CDC25C change was “Up” and the “CDC25C logFC” value was 0.5857. For the same compound, the CENPE change was “Up”, the “CENPE logFC” value was 0.6854 and the CERS4 change was “Down”. For the same compound, the “CERS4 logFC” value was -0.7861, the CHST6 change was “Down” and the “CHST6 logFC” value was -0.6638. For the same compound, the CILP2 change was “Down”, the “CILP2 logFC” value was -0.9152 and the CLEC7A change was “Down”. For the same compound, the “CLEC7A logFC” value was -1.627, the CLGN change was “Up” and the “CLGN logFC” value was 0.5838. For the same compound, the COL9A2 change was “Up”, the “COL9A2 logFC” value was 0.6974 and the CPAMD8 change was “Up”. The “CPAMD8 logFC” value was 0.9195, the CRYBG1 change was “Down” and the “CRYBG1 logFC” value was -0.6404. The CSF1R change was “Up”, the “CSF1R logFC” value was 1.132 and the CTNNBIP1 change was “Up”. The “CTNNBIP1 logFC” value was 0.608, the CYP24A1 change was “Up” and the “CYP24A1 logFC” value was 0.7733. For the same compound, the CYP39A1 change was “Down”, the “CYP39A1 logFC” value was -0.966 and the D2HGDH change was “Up”. For the same compound, the “D2HGDH logFC” value was 0.7244, the DEPTOR change was “Down” and the “DEPTOR logFC” value was -0.8053. For the same compound, the DOK7 change was “Up”, the “DOK7 logFC” value was 0.6123 and the DPF1 change was “Down”. The “DPF1 logFC” value was -0.7852, the DUSP18 change was “Down” and the “DUSP18 logFC” value was -1.0326. The ELOVL6 change was “Down”, the “ELOVL6 logFC” value was -0.6915 and the EN2 change was “Down”. The “EN2 logFC” value was -0.8276, the ENPP1 change was “Up” and the “ENPP1 logFC” value was 0.6168. For the same compound, the EPHA7 change was “Up”, the “EPHA7 logFC” value was 0.6078 and the ERVV-2 change was “Up”. For the same compound, the “ERVV-2 logFC” value was 0.6706, the FAAH2 change was “Up” and the “FAAH2 logFC” value was 0.6861. The FAM72A change was “Up”, the “FAM72A logFC” value was 0.7318 and the FAM167B change was “Down”. The “FAM167B logFC” value was -1.112, the FAM222A change was “Down” and the “FAM222A logFC” value was -0.6769. The FAR2 change was “Down”, the “FAR2 logFC” value was -0.7201 and the FBXL22 change was “Down”. For the same compound, the “FBXL22 logFC” value was -1.204, the FDXACB1 change was “Down” and the “FDXACB1 logFC” value was -1.018. The FES change was “Down”, the “FES logFC” value was -1.129 and the FGF11 change was “Down”. For the same compound, the “FGF11 logFC” value was -0.6148, the FGF12 change was “Up” and the “FGF12 logFC” value was 0.873. The FHIT change was “Up”, the “FHIT logFC” value was 0.955 and the FICD change was “Up”. The “FICD logFC” value was 0.637, the FUT3 change was “Down” and the “FUT3 logFC” value was -0.9413. The GBP4 change was “Down”, the “GBP4 logFC” value was -1.639 and the GGT2 change was “Up”. For the same compound, the “GGT2 logFC” value was 0.9035, the GJD3 change was “Down” and the “GJD3 logFC” value was -0.6605. For the same compound, the GPD1 change was “Up”, the “GPD1 logFC” value was 0.9345 and the GPR3 change was “Down”. The “GPR3 logFC” value was -1.067, the GPR158 change was “Up” and the “GPR158 logFC” value was 0.961. The GRIP2 change was “Down”, the “GRIP2 logFC” value was -0.6933 and the H3C6 change was “Down”. For the same compound, the “H3C6 logFC” value was -0.6656, the H4C8 change was “Down” and the “H4C8 logFC” value was -0.9939. For the same compound, the HBA1 change was “Down”, the “HBA1 logFC” value was -0.7699 and the HPD change was “Up”. The “HPD logFC” value was 0.6168, the HPGD change was “Down” and the “HPGD logFC” value was -0.5852. The IFIT1 change was “Down”, the “IFIT1 logFC” value was -0.7944 and the IFIT2 change was “Down”. For the same compound, the “IFIT2 logFC” value was -0.7214, the IL7R change was “Down” and the “IL7R logFC” value was -0.8033. For the same compound, the IMMP2L change was “Up”, the “IMMP2L logFC” value was 0.6542 and the IQCG change was “Up”. For the same compound, the “IQCG logFC” value was 0.9618, the ISYNA1 change was “Down” and the “ISYNA1 logFC” value was -1.197. The JMJD7-PLA2G4B change was “Up”, the “JMJD7-PLA2G4B logFC” value was 0.8598 and the KCP change was “Up”. For the same compound, the “KCP logFC” value was 1.479, the KHDC1 change was “Down” and the “KHDC1 logFC” value was -0.6694. For the same compound, the KRT34 change was “Up”, the “KRT34 logFC” value was 0.7278 and the LOC100133315 change was “Up”. The “LOC100133315 logFC” value was 0.7126, the LOC102724200 change was “Up” and the “LOC102724200 logFC” value was 1.529. The LOC102724788 change was “Up”, the “LOC102724788 logFC” value was 0.903 and the LOC107984638 change was “Down”. For the same compound, the “LOC107984638 logFC” value was -1.075, the LRRC56 change was “Down” and the “LRRC56 logFC” value was -0.591. The LRRK2 change was “Down”, the “LRRK2 logFC” value was -0.8118 and the MAST4 change was “Down”. For the same compound, the “MAST4 logFC” value was -0.6435, the MCTP2 change was “Up” and the “MCTP2 logFC” value was 0.7514. For the same compound, the MORN4 change was “Up”, the “MORN4 logFC” value was 0.6216 and the MVB12B change was “Up”. The “MVB12B logFC” value was 0.6743, the MXRA8 change was “Down” and the “MXRA8 logFC” value was -0.6329. For the same compound, the MYB change was “Down”, the “MYB logFC” value was -0.6747 and the MYH14 change was “Up”. For the same compound, the “MYH14 logFC” value was 0.8331, the MYPN change was “Up” and the “MYPN logFC” value was 0.6564. For the same compound, the NCF2 change was “Down”, the “NCF2 logFC” value was -1.214 and the NEBL change was “Up”. For the same compound, the “NEBL logFC” value was 0.5931, the NECAB2 change was “Up” and the “NECAB2 logFC” value was 0.9799. The NEIL3 change was “Up”, the “NEIL3 logFC” value was 0.6475 and the NEK11 change was “Up”. The “NEK11 logFC” value was 0.7755, the NFE2 change was “Down” and the “NFE2 logFC” value was -0.6303. For the same compound, the NPHS1 change was “Up”, the “NPHS1 logFC” value was 1.189 and the NPIPA3 change was “Down”. For the same compound, the “NPIPA3 logFC” value was -0.8968, the NPY4R change was “Up” and the “NPY4R logFC” value was 0.7533. The NR5A2 change was “Down”, the “NR5A2 logFC” value was -0.6198 and the NR6A1 change was “Down”. For the same compound, the “NR6A1 logFC” value was -0.7194, the NYAP1 change was “Down” and the “NYAP1 logFC” value was -0.7161.
